The values that follow come from US12552775B2, “Compounds and uses thereof” (Foghorn Therapeutics Inc., priority 2020, dated 2026).

The target of experiment [1] is T1, HiBit-BRG1 fusion protein (Homo sapiens, UniProt P51532).
T1 construct: expressed in transfected cells
The experiment can be described thus: HiBiT-BRG1 cell-based degradation assay (Nano-Glo HiBiT Lytic Detection, 24 h). Conditions: stable HeLa cell line expressing HiBit-BRG1 and LgBit, top dose 30 μM, read-out: BRG1 HiBit Degradation Maximum (%). The method, boiled down:
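HeLa cells stably expressing HiBiT-BRG1 plus LgBiT were treated with 10-point 3-fold compound dilutions (top 30 μM final) for 24 h. Lytic Nano-Glo HiBiT luminescence was read. % degradation was normalised between DMSO (high control) and 2 μM of a reference BRM/BRG1 degrader (low control).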
On the technique in general: The HiBiT peptide binds its large partner to form an active luciferase.

Another experiment concerns the target T2, HiBit-BRM fusion protein (Homo sapiens, UniProt P51531).
T2 construct: expressed in transfected cells
The experiment is described as follows: HiBiT-BRM cell-based degradation assay (Nano-Glo HiBiT Lytic Detection, 24 h). As to conditions: stable HeLa cell line expressing HiBiT-BRM, top dose 30 μM. The method, boiled down: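 HiBiT-tagged BRM levels in a stable HeLa line are measured after one day of compound treatment (up to 30 μM final, duplicate 10-point curves) by adding LgBiT lytic reagent and reading bioluminescence; values are expressed relative to vehicle and a 2 μM degrader control.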

T2 sequence (P51531 whole entry, the tested form may be a part): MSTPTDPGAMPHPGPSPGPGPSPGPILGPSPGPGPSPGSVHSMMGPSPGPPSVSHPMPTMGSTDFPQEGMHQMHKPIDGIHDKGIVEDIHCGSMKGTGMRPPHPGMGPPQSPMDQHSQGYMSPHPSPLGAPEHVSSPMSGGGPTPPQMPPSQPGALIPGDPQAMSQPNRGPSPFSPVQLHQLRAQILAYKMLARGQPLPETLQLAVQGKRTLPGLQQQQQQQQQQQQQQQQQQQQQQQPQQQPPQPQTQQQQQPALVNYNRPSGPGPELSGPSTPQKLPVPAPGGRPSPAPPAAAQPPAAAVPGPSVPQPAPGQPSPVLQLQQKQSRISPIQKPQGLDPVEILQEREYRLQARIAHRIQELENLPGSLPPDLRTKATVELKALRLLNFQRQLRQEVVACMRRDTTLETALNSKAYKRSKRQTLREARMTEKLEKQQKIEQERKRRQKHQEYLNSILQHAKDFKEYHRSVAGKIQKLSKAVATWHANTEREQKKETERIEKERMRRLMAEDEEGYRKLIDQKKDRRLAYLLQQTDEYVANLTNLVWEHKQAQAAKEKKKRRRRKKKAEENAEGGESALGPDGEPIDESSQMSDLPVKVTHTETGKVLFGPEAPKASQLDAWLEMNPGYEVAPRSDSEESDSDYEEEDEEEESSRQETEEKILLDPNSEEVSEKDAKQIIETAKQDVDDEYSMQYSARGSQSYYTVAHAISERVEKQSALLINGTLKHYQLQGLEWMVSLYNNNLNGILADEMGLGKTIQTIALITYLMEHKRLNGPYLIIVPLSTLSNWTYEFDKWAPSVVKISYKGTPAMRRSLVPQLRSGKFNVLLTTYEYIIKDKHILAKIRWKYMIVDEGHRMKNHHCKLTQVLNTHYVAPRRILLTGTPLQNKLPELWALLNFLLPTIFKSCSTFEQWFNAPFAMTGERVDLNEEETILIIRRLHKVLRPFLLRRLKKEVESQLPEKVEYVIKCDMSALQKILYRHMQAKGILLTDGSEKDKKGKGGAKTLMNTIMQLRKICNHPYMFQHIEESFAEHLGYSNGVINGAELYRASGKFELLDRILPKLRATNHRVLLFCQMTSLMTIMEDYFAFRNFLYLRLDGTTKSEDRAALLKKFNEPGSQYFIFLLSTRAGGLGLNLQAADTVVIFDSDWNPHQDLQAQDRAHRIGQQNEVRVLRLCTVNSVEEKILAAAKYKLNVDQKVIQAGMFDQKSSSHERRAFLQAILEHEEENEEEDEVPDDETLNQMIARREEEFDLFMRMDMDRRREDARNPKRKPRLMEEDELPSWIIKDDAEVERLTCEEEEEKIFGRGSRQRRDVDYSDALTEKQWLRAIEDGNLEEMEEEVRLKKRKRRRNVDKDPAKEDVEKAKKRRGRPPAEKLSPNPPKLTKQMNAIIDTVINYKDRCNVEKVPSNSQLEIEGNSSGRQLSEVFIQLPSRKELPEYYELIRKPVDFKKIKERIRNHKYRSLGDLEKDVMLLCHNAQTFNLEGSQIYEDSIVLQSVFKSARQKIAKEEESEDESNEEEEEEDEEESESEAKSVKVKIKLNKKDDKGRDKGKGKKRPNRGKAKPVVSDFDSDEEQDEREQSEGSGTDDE
T1 sequence (P51532 whole entry, the tested form may be a part): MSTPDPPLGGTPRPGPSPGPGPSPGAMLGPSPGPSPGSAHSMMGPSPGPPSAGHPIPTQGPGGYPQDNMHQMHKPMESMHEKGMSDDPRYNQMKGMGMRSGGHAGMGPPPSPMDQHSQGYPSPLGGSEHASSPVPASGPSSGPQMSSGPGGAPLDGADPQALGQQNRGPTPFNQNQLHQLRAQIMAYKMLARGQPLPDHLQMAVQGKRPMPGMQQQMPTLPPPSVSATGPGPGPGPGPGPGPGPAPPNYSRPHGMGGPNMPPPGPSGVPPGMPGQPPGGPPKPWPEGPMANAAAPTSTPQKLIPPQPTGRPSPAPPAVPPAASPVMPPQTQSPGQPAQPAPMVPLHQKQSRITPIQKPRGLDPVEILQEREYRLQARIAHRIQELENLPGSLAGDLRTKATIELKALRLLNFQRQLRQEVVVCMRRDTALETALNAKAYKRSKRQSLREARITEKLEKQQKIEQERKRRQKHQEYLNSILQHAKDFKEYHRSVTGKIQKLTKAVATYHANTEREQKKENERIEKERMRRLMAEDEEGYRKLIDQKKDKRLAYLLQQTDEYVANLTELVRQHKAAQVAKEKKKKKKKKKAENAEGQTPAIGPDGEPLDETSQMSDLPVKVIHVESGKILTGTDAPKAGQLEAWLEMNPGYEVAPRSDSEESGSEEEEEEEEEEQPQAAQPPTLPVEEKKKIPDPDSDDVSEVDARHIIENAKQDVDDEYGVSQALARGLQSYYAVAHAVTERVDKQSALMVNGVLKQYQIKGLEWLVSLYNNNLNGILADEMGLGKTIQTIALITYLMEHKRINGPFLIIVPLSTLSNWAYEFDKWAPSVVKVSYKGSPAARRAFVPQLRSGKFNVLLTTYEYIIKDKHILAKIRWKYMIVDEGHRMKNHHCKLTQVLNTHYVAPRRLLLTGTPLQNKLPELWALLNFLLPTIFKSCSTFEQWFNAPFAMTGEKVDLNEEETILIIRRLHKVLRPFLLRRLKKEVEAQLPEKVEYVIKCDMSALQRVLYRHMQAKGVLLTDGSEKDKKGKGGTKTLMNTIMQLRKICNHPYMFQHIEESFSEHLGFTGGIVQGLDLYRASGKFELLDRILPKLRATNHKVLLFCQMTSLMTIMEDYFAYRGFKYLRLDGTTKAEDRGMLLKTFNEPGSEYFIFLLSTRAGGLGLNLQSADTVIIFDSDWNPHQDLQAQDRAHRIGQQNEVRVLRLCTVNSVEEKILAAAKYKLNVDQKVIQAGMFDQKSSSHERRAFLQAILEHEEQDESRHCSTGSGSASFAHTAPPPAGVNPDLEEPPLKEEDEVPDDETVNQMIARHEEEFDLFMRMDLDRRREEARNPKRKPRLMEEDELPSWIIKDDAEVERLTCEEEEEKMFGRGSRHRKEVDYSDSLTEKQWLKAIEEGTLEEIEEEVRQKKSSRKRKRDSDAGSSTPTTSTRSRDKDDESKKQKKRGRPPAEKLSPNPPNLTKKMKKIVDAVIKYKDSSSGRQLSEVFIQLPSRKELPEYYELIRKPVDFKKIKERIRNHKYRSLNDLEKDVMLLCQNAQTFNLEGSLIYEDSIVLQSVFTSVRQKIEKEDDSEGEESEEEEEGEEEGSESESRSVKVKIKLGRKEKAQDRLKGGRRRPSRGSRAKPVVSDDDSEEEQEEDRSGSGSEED

Turning to `Nc1nnc(-c2ccccc2O)cc1OCC12CC(CNC(=O)CCOCCOCCOc3ccc4c(c3)C(=O)N(C3CCC(=O)NC3=O)C4=O)(C1)C2` (centres unmarked) [Compound 1, N-[[3-([[3-amino-6-(2-hydroxyphenyl)pyridazin-4-yl]oxy]methyl)bicyclo[1.1.1]pentan-1-yl]methyl]-3-[2-(2-[[2-(2,6-dioxopiperidin-3-yl)-1,3-dioxoisoindol-5-yl]oxy]ethoxy)ethoxy]propanamide], the Dmax in experiment [1] is < 50%. Also, the “BRM HiBit Degradation Maximum (%)” value on HiBit-BRM fusion protein is recorded as “C (“C” indicates maximum degradation < 50%)”.

For `Nc1nnc(-c2ccccc2O)cc1OCCC12CC(NC(=O)CCOCCOCCOc3cccc4c3C(=O)N(C3CCC(=O)NC3=O)C4=O)(C1)C2` (centres unmarked) [Compound 30, N-(3-(2-((3-amino-6-(2-hydroxyphenyl)pyridazin-4-yl)oxy)ethyl)bicyclo[1.1.1]pentan-1-yl)-3-(2-(2-((2-(2,6-dioxopiperidin-3-yl)-1,3-dioxoisoindolin-4-yl)oxy)ethoxy)ethoxy)propanamide], in experiment [1], the Dmax was < 50%. On HiBit-BRM fusion protein, the “BRM HiBit Degradation Maximum (%)” value is on record as “C (“C” indicates maximum degradation < 50%)”.

Consider `Nc1nnc(-c2ccccc2O)cc1OCC12CC(C(=O)NCCOCCOCCNc3cccc4c3CN(C3CCC(=O)NC3=O)C4=O)(C1)C2` (centres unmarked) [Compound 60, 3-(((3-amino-6-(2-hydroxyphenyl)pyridazin-4-yl)oxy)methyl)-N-(2-(2-(2-((2-(2,6-dioxopiperidin-3-yl)-1-oxoisoindolin-4-yl)amino)ethoxy)ethoxy)ethyl)bicyclo[1.1.1]pentane-1-carboxamide], for which the Dmax in experiment [1] is < 50%. On HiBit-BRM fusion protein, the “BRM HiBit Degradation Maximum (%)” value is “C (“C” indicates maximum degradation < 50%)”.

On to `Nc1nnc(-c2ccccc2O)cc1OCC12CC(C(=O)N3CCN(c4ccc5c(c4)C(=O)N(C4CCC(=O)NC4=O)C5=O)CC3)(C1)C2` (centres unmarked) [Compound 54, 5-(4-(3-(((3-amino-6-(2-hydroxyphenyl)pyridazin-4-yl)oxy)methyl)bicyclo[1.1.1]pentane-1-carbonyl)piperazin-1-yl)-2-(2,6-dioxopiperidin-3-yl)isoindoline-1,3-dione], for which, in experiment [1], the Dmax was < 50%. Besides, on HiBit-BRM fusion protein, the “BRM HiBit Degradation Maximum (%)” value is listed as “C (“C” indicates maximum degradation < 50%)”.

Turning to `Nc1nnc(-c2ccccc2O)cc1OCC12CC(CNC(=O)CCCCCCOc3cccc4c3C(=O)N(C3CCC(=O)NC3=O)C4=O)(C1)C2` (centres unmarked) [Compound 4, N-[[3-([[3-amino-6-(2-hydroxyphenyl)pyridazin-4-yl]oxy]methyl)bicyclo[1.1.1]pentan-1-yl]methyl]-7-[[2-(2,6-dioxopiperidin-3-yl)-1,3-dioxoisoindol-4-yl]oxy]heptanamide], the Dmax in experiment [1] is < 50%. The “BRM HiBit Degradation Maximum (%)” value on HiBit-BRM fusion protein is listed as “C (“C” indicates maximum degradation < 50%)”.

Take `Nc1nnc(-c2ccccc2O)cc1OCCC12CC(NC(=O)CCCCCCOc3cccc4c3C(=O)N(C3CCC(=O)NC3=O)C4=O)(C1)C2` (centres unmarked) [Compound 20, N-[3-(2-[[3-amino-6-(2-hydroxyphenyl)pyridazin-4-yl]oxy]ethyl)bicyclo[1.1.1]pentan-1-yl]-7-[[2-(2,6-dioxopiperidin-3-yl)-1,3-dioxoisoindol-4-yl]oxy]heptanamide]: the Dmax in experiment [1] was < 50%. In addition, the “BRM HiBit Degradation Maximum (%)” value at HiBit-BRM fusion protein is given as “C (“C” indicates maximum degradation < 50%)”.

Consider `Nc1nnc(-c2ccccc2O)cc1OCC12CC(C(=O)NCCS(=O)(=O)CCNc3cccc4c3C(=O)N(C3CCC(=O)NC3=O)C4=O)(C1)C2` (centres unmarked) [Compound 74, 3-(((3-amino-6-(2-hydroxyphenyl)pyridazin-4-yl)oxy)methyl)-N-(2-((2-((2-(2,6-dioxopiperidin-3-yl)-1,3-dioxoisoindolin-4-yl)amino)ethyl)sulfonyl)ethyl)bicyclo[1.1.1]pentane-1-carboxamide], for which, in experiment [1], the Dmax was < 50%. At HiBit-BRM fusion protein, the “BRM HiBit Degradation Maximum (%)” value was “C (“C” indicates maximum degradation < 50%)”.
